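Assay format: 96-well plates, 48-hour exposure. GI50 marks 50% less growth. At the TGI there is no net growth.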
Columns and labels:
Test in all cases: growth of human tumour cells (NCI), 48 h; in the data active = GI50 below about 0.43 µM; inactive = the rest
LXFL 529 NSCLC = test system: LXFL 529 NSCLC
UACC-257 melanoma = test system: UACC-257 melanoma
K-562 leukemia = test system: K-562 leukemia
M14 melanoma = test system: M14 melanoma
NCI-H226 lung = test system: NCI-H226 lung
SW-620 colon = test system: SW-620 colon
KM20L2 colon = test system: KM20L2 colon
COLO 205 colon = test system: COLO 205 colon
HCT-15 colon = test system: HCT-15 colon
NCI-H522 lung = test system: NCI-H522 lung
CCRF-CEM leukemia = test system: CCRF-CEM leukemia
SNB-19 CNS = test system: SNB-19 CNS
OVCAR-8 ovarian = test system: OVCAR-8 ovarian
HCC-2998 colon = test system: HCC-2998 colon
OVCAR-5 ovarian = test system: OVCAR-5 ovarian
UO-31 renal = test system: UO-31 renal
A549 NSCLC = test system: A549 NSCLC
SK-MEL-2 melanoma = test system: SK-MEL-2 melanoma
NCI-H460 lung = test system: NCI-H460 lung
SK-MEL-28 melanoma = test system: SK-MEL-28 melanoma
HCT-116 colon = test system: HCT-116 colon
RPMI-8226 leukemia = test system: RPMI-8226 leukemia
RXF 393 renal = test system: RXF 393 renal
HOP-92 NSCLC = test system: HOP-92 NSCLC
786-0 renal = test system: 786-0 renal
ACHN renal = test system: ACHN renal
HT29 colon = test system: HT29 colon
SNB-75 CNS = test system: SNB-75 CNS
IGROV1 ovarian = test system: IGROV1 ovarian
SK-OV-3 ovarian = test system: SK-OV-3 ovarian
MALME-3M melanoma = test system: MALME-3M melanoma
LOX IMVI melanoma = test system: LOX IMVI melanoma
SN12C renal = test system: SN12C renal
DLD-1 colon = test system: DLD-1 colon
EKVX NSCLC = test system: EKVX NSCLC
HOP-18 NSCLC = test system: HOP-18 NSCLC
SF-268 CNS = test system: SF-268 CNS
DMS 273 small cell lung = test system: DMS 273 small cell lung
SNB-78 CNS = test system: SNB-78 CNS
TK-10 renal = test system: TK-10 renal
KM12 colon = test system: KM12 colon
U251 CNS = test system: U251 CNS
NCI-H23 lung = test system: NCI-H23 lung
CAKI-1 renal = test system: CAKI-1 renal
A498 renal = test system: A498 renal
OVCAR-4 ovarian = test system: OVCAR-4 ovarian
UACC-62 melanoma = test system: UACC-62 melanoma

O=c1c(O)c(O)c1=O.[NH2-].[NH2-].[NH2-].[NH2-].[NH2-].[Ru+5]
inactive: GI50 (LXFL 529 NSCLC) > 100 µM | GI50 (UACC-257 melanoma) > 100 µM | GI50 (K-562 leukemia) > 100 µM | GI50 (M14 melanoma) > 100 µM | GI50 (NCI-H226 lung) > 100 µM | GI50 (SW-620 colon) > 100 µM | GI50 (KM20L2 colon) > 100 µM | GI50 (COLO 205 colon) > 100 µM | GI50 (HCT-15 colon) > 100 µM | GI50 (NCI-H522 lung) > 100 µM | GI50 (CCRF-CEM leukemia) > 100 µM | GI50 (SNB-19 CNS) > 100 µM | GI50 (OVCAR-8 ovarian) > 100 µM | GI50 (HCC-2998 colon) > 100 µM | GI50 (OVCAR-5 ovarian) > 100 µM | GI50 (UO-31 renal) > 100 µM | GI50 (A549 NSCLC) > 100 µM | GI50 (SK-MEL-2 melanoma) > 100 µM | GI50 (NCI-H460 lung) > 100 µM | GI50 (SK-MEL-28 melanoma) > 100 µM | GI50 (HCT-116 colon) > 100 µM | GI50 (RPMI-8226 leukemia) > 100 µM | GI50 (RXF 393 renal) > 100 µM | GI50 (HOP-92 NSCLC) > 100 µM | GI50 (786-0 renal) > 100 µM | GI50 (ACHN renal) > 100 µM | GI50 (HT29 colon) > 100 µM | GI50 (SNB-75 CNS) > 100 µM | GI50 (IGROV1 ovarian) > 100 µM | GI50 (SK-OV-3 ovarian) > 100 µM | GI50 (MALME-3M melanoma) > 100 µM | GI50 (LOX IMVI melanoma) > 100 µM | GI50 (SN12C renal) > 100 µM | GI50 (DLD-1 colon) > 100 µM | GI50 (EKVX NSCLC) > 100 µM | GI50 (HOP-18 NSCLC) > 100 µM | GI50 (SF-268 CNS) > 100 µM | GI50 (DMS 273 small cell lung) > 100 µM | GI50 (SNB-78 CNS) > 100 µM | GI50 (TK-10 renal) > 100 µM | GI50 (KM12 colon) > 100 µM | GI50 (U251 CNS) > 100 µM | GI50 (NCI-H23 lung) > 100 µM | GI50 (CAKI-1 renal) > 100 µM | GI50 (A498 renal) > 100 µM | GI50 (OVCAR-4 ovarian) > 100 µM | GI50 (UACC-62 melanoma) > 100 µM
> 100 µM: TGI (LXFL 529 NSCLC) | TGI (UACC-257 melanoma) | TGI (K-562 leukemia) | TGI (M14 melanoma) | TGI (NCI-H226 lung) | TGI (SW-620 colon) | TGI (KM20L2 colon) | TGI (COLO 205 colon) | TGI (HCT-15 colon) | TGI (NCI-H522 lung) | TGI (CCRF-CEM leukemia) | TGI (SNB-19 CNS) | TGI (OVCAR-8 ovarian) | TGI (HCC-2998 colon) | TGI (OVCAR-5 ovarian) | TGI (UO-31 renal) | TGI (A549 NSCLC) | TGI (SK-MEL-2 melanoma) | TGI (NCI-H460 lung) | TGI (SK-MEL-28 melanoma) | TGI (HCT-116 colon) | TGI (RPMI-8226 leukemia) | TGI (RXF 393 renal) | TGI (HOP-92 NSCLC) | TGI (786-0 renal) | TGI (ACHN renal) | TGI (HT29 colon) | TGI (SNB-75 CNS) | TGI (IGROV1 ovarian) | TGI (SK-OV-3 ovarian) | TGI (MALME-3M melanoma) | TGI (LOX IMVI melanoma) | TGI (SN12C renal) | TGI (DLD-1 colon) | TGI (EKVX NSCLC) | TGI (HOP-18 NSCLC) | TGI (SF-268 CNS) | TGI (DMS 273 small cell lung) | TGI (SNB-78 CNS) | TGI (TK-10 renal) | TGI (KM12 colon) | TGI (U251 CNS) | TGI (NCI-H23 lung) | TGI (CAKI-1 renal) | TGI (A498 renal) | TGI (OVCAR-4 ovarian) | TGI (UACC-62 melanoma)

Source: PubChem BioAssay (NCI)
